This note sets out measurements from patent publication US12415771B2, “Compounds for the treatment of neuromuscular disorders” (NMD PHARMA A/S, priority 2019, dated 2025).

One test relates to female Lewis rats. The test can be described thus: In situ isometric hindlimb force in anaesthetised rats under partial neuromuscular block by Cisatracurium. The test is classed as in vivo. The note with it: Rattus norvegicus, iv, read-out: increase in tetanic force. Here is the method:
Isometric hindlimb force was measured in 12-week old female Lewis rats in the presence and absence of compound.
Rats were placed under anesthesia with isoflurane (2-4%), intubated and subsequently connected to a micro ventilator (Microvent 1, Hallowell EMC, US). Two stimulation electrodes were inserted through the skin to stimulate the sciatic nerve. A small incision was made proximal to the ankle, to expose the Achilles tendon, which was tied by cotton string, and connected to a force transducer (Fort250, World Precision Instruments) with adjustable position (Vernier control). The Achilles tendon was then cut distal to the attached cotton string. The rat was placed on a heated pad, and to prevent movement artefacts from contraction of the ankle dorsiflexors, the foot was fixated by tape on a footplate.
Muscle contractile properties were assessed by applying an electrical current (under supramaximal voltage conditions) to the nerve and recording the force generated by the muscle. The muscle was stretched until maximal force was obtained, when assessed by 2 Hz stimulation. Isometric force was measured every 30 seconds at 12 Hz (Twitch), 10 pulses, and at every 5 minutes at 80 Hz (Tetanic) for 1 second (80 pulses). This stimulation pattern was employed throughout the experiment, expect in few cases where 80 Hz stimulation was replaced by 12 Hz (10 pulses). […] When the level of neuromuscular inhibition was stable, the test article was injected i.v. at the chosen concentration. The effect of test article was assessed on its ability to increase force generated from the stimulation pattern applied. The effect was assessed in the ability to increase force per se (tetanic, 80 Hz, stimulation), and the ratio between individual twitch peaks (12 Hz stimulation). The effect was monitored for at least 1 hour after injection of test article. In addition, the time from injection of test article to maximal effect on force (both twitch and tetanic) was noted and the time for the effect to disappear (return to baseline), if possible. When appropriate the infusion of neuromuscular blocking agent was ceased, with the stimulation pattern continued, and the return of force to control levels was monitored. Animals were sacrificed by cervical dislocation while still fully sedated.

In test [1] the test system is isolated rat soleus muscles. The test can be described thus: Recovery of nerve-stimulated contractile force in isolated rat soleus nerve-muscle preparation exposed to tubocurarine. The note with it: 40 min, read-out: Point increase (%) of initial force that was restored. Here is the method:
Recovery of force is quantified as the percentage of the force prior to tubocurarine that is recovered by the compound.
The current disclosure relates to compounds that inhibit CIC-1 ion channels and increase muscle excitability and thereby improve muscle function in clinical conditions where muscle activation is failing. Such conditions result in loss of contractile function of skeletal muscle, weakness and excessive fatigue. In this series of experiments the compounds were tested for their ability to restore contractile function of isolated rat muscle when the neuromuscular transmission had been compromised akin to neuromuscular disorders.
Experimentally, soleus muscles from 4-5 wk old rats were isolated with the motor nerve remaining attached. The nerve-muscle preparations were mounted in experimental setups that enabled electrical stimulation of the motor nerve. Stimulation of the motor nerve led to activation of the muscle fibres and ensuing force production that was recorded.
After mounting the nerve-muscle preparation in the experimental setup, the contractile function of the muscle was initially assessed under the control conditions (FIG. 2A). […] The experimental condition mimics the failing neuromuscular transmission in a range of neuromuscular disorders. After addition of tubocurarine the contractile force declined over the next 90 mins to 10-50% of the control force. 50 μM of the test compound was then added and the contractile force recovered despite the continued presence of tubocurarine. To quantify the ability of the compound to restore force the percentage of the initial force that was restored was determined after 40 mins of compound exposure (FIG. 2B) and the point increase is reported in Table 3.

Another test has as its target T1, CIC-1 ion channel (Rattus norvegicus, UniProt P35524).
T1 construct: from tissue; host or cells: intact soleus muscle of 12-14 week old Wistar rats
T1 sequence (P35524 1-994): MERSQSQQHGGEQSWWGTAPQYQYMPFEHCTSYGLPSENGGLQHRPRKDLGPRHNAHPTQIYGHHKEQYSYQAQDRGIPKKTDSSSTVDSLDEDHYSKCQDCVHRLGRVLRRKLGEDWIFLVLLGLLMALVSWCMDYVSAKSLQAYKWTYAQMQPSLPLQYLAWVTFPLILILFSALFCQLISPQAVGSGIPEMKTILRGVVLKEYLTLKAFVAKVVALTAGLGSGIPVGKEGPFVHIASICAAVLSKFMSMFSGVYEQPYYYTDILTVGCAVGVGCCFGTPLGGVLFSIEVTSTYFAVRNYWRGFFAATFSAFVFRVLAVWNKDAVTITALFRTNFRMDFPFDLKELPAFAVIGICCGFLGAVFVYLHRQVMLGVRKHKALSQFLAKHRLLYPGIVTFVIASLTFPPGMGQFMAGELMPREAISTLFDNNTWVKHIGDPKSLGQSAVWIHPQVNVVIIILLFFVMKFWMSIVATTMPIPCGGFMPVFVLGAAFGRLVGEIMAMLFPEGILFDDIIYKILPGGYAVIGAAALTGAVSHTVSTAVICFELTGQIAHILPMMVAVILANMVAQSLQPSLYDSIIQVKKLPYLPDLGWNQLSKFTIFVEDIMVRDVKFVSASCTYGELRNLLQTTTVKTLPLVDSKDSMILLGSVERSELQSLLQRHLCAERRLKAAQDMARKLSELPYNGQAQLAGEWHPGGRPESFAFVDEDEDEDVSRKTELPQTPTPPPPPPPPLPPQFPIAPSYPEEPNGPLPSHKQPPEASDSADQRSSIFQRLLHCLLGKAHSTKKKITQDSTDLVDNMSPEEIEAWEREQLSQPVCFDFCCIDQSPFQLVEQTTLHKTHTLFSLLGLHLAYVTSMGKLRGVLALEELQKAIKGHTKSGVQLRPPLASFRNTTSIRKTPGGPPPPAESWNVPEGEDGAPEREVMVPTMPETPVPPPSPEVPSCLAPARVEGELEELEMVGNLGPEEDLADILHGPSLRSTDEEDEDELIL
Briefly: Electrophysiological measurement (Gm, three micro-electrode technique) of compound inhibition of CIC-1 in rat soleus muscle fibres. The format is cell-based. The following applies: whole rat soleus muscle, Gm at four increasing concentrations, approx. 30° C., mean ± spread.

For test [2], the system named is isolated rat soleus muscles. The test can be described thus: Recovery of nerve-stimulated contractile force in isolated rat soleus nerve-muscle preparation exposed to tubocurarine. The note with it: FIG. 2: 50 μM compound added after 90 min incubation in tubocurarine, 3 muscles.
The mark [3] stands for this setting: 50 μM test compound, after 40 mins exposure, 115 nM tubocurarine for 90 mins, rat soleus.

Like-named read-outs stand apart in the source and are kept apart here.

For orientation: EC50 means the midpoint of the concentration-response curve. In the case of `CC(C)C(F)(F)c1cc(Br)ccc1O[C@@H](C)C(=O)O` [Compound A-7, (2S)-2-[4-bromo-2-(1,1-difluoro-2-methylpropyl)phenoxy]propanoic acid], in the test with female Lewis rats (25.1 mg/kg i.v., 80 Hz stimulation, Cisatracurium block), the change in vivo at 25.1 mg/kg turned out to be 64%. The activation at 50 µM in test [1] (setting [3]) worked out at 42%. This compound also had an EC50 at CIC-1 ion channel of 3.5 ± 0.7 µM.
As for `CCC(F)(F)c1cc(Br)ccc1O[C@@H](C)C(=O)O` [Compound A-3, (2S)-2-[4-bromo-2-(1,1-difluoropropyl)phenoxy]propanoic acid], the change in vivo at 17.5 mg/kg in the test with female Lewis rats (17.5 mg/kg i.v., 80 Hz stimulation, Cisatracurium block) worked out at 64%. The activation at 50 µM in test [1] (setting [3]) was found to be 54%. Further, the “average force (AUC) relative to initial force” value in test [2] is reported as “recovered”. This compound also yielded an EC50 at CIC-1 ion channel of 3.5 ± 0.4 µM.
`CCC(F)(F)c1cc(Cl)ccc1O[C@@H](CF)C(=O)O` [Compound A-22, (2R)-2-[4-chloro-2-(1,1-difluoropropyl)phenoxy]-3-fluoropropanoic acid]: the change in vivo at 10.4 mg/kg with female Lewis rats stood at 57%. The activation at 50 µM in test [1] (Rattus norvegicus) was 65%. Besides, at CIC-1 ion channel, the response was half-maximal at 3.3 ± 1.2 µM (EC50).
In the case of `CCC(F)(F)c1cc(Cl)ccc1O[C@@H](C)C(=O)O` [Compound A-5, (2S)-2-[4-chloro-2-(1,1-difluoropropyl)phenoxy]propanoic acid], in the test on female Lewis rats, the change in vivo at 10.5 mg/kg was determined as 47%. Further, the activation at 50 µM in test [1] (Rattus norvegicus) is 53%. Moreover, the EC50 on CIC-1 ion channel is 4 ± 2.1 µM.
`C[C@H](Oc1cc(F)c(Br)cc1C(C)(F)F)C(=O)O` [Compound A-29, (2S)-2-[4-bromo-2-(1,1-difluoroethyl)-5-fluorophenoxy]propanoic acid]: the change in vivo at 22.9 mg/kg with female Lewis rats was 76%. Further, the activation at 50 µM in test [1] (Rattus norvegicus) came out at 46%. The compound also showed an EC50 at CIC-1 ion channel of 5.5 ± 1.7 µM.
Consider `C#Cc1ccc(O[C@@H](C)C(=O)O)c(C(F)(F)CC)c1` [Compound A-23, (2S)-2-[2-(1,1-difluoropropyl)-4-ethynylphenoxy]propanoic acid], for which the change in vivo at 18.8 mg/kg in the test with female Lewis rats (18.8 mg/kg i.v., 80 Hz stimulation, Cisatracurium block) came out at 40%. Besides, in test [1] (setting [3]), the activation at 50 µM is 37%. In addition, a half-maximal effect at CIC-1 ion channel (EC50) was put at 6.1 ± 1.1 µM.
As to `CCC(F)(F)c1cc(Br)c(F)cc1OCC(=O)O` [Compound A-31, 2-[4-bromo-2-(1,1-difluoropropyl)-5-fluorophenoxy]acetic acid], in the test with female Lewis rats (11.4 mg/kg i.v., 80 Hz stimulation, Cisatracurium block), the change in vivo at 11.4 mg/kg was 14%. In addition, the activation at 50 µM in test [1] (setting [3]) was determined as 43%. At CIC-1 ion channel, this compound came in with an EC50 of 5.5 ± 0.2 µM.
As to `CCC(F)(F)c1cc(Cl)c(F)cc1O[C@@H](C)C(=O)O` [Compound A-32, (2S)-2-[4-chloro-2-(1,1-difluoropropyl)-5-fluorophenoxy]propanoic acid], the change in vivo at 11.2 mg/kg with female Lewis rats is 75%. In test [1] (Rattus norvegicus), the activation at 50 µM is 41%. At CIC-1 ion channel, this compound came in with an EC50 of 2.3 ± 0.6 µM.
